Like-named read-outs stand apart in the source and are kept apart here.

Series [1] deals with human platelet rich plasma (PRP), arachidonic acid-induced platelet aggregation. Also noted: method as in PMID 23154304. Conditions: inducer arachidonic acid, obtained in previous study, read-out: Antiplatelet aggregation activity, IC50, AA; cited from earlier work.
Series [2] can be described thus: Cytotoxicity assay, MTT method. Conditions: mouse, fibroblast L929 cell line, 24 h of exposure. The series is classed as cell-based. The procedure: (§1) The synthesized derivatives were assayed for their toxicity on Fibroblast L929 cell line by MTT [[…]] method. The compounds were initially screened at 100 µM concentration and IC50 was calculated for those showing more than 50% toxicity. The detailed procedure has been described in our previous work([18]).
For orientation: Formazan colour is commonly taken as a measure of viable cells.

Series [3] deals with Fibroblast L929 cell line. The experiment in a line: Cytotoxicity assay, MTT method. The following applies: 24 h of exposure. The series is classed as cell-based. The procedure:
as §1

For series [4], the system named is human platelet rich plasma (PRP), collagen-induced platelet aggregation. The series is described as follows: Collagen-induced platelet aggregation in human platelet rich plasma (Born turbidimetric method). The series is classed as cell-based. Conditions: inducer collagen (5 µM); for IC50: Platelet, read-out: Antiplatelet aggregation activity, IC50, Collagen. The procedure: (§2) The in vitro antiplatelet activity of the derivatives was evaluated using human platelet rich plasma (PRP)on an APACT 4004 aggregometerby Born’s reported turbidimetric method([16]). ADP (5 µM), arachidonic acid (1.25 mg/mL) and collagen (5 µM) were used as inducers of platelet aggregation. IC50 was defined as the concentration of the test compound that inhibits the platelet aggregation by 50%. The detailed procedure has been described in our previous works([11],[12],[17]).

Series [5] relates to human platelet rich plasma (PRP), ADP-induced platelet aggregation. The arrangement: method as in PMID 23154304. The following applies: inducer ADP, obtained in previous study, read-out: Antiplatelet aggregation activity, IC50, ADP; cited from earlier work.
The test system of series [6] is human platelet rich plasma (PRP), arachidonic acid-induced platelet aggregation. The experiment in a line: Arachidonic acid-induced platelet aggregation in human platelet rich plasma (Born turbidimetric method). The following applies: inducer arachidonic acid 1.25 mg/mL; for IC50: Platelet, read-out: Antiplatelet aggregation activity, IC50, AA. The series is classed as cell-based. The procedure: as §2

The subject of series [7] is human platelet rich plasma (PRP), ADP-induced platelet aggregation. The series is described as follows: ADP-induced platelet aggregation in human platelet rich plasma (Born turbidimetric method). The series is classed as cell-based. Conditions: inducer ADP 5 µM, read-out: Antiplatelet aggregation activity, IC50, ADP. The procedure:
as §2

The term IC50 denotes the concentration that inhibits the measured activity by half. For `C(=NNc1ccccc1)c1c[nH]c2ccccc12` [1a, indole-3-carboxaldehyde phenylhydrazone], the values for the IC50 in series [1], in series [4] and in series [5] were 10 µM, 38.8 µM and greater than 100 µM, respectively. The compound also returned an IC50 at 24 h in series [2] (L929 fibroblast cells) greater than 100 µM. For the same compound, in series [3], the “Cytotoxicity, IC50” value is “not toxic to fibroblast cells”. Besides, in series [4], the “Antiplatelet aggregation activity, IC50, Collagen” value is recorded as “moderate activity”.
On to `Fc1ccc(N/N=C/c2c[nH]c3ccccc23)cc1` [1b], for which the IC50 in series [6] was 28.8 µM; in series [4] it was greater than 100 µM; in series [7] it was greater than 100 µM. This compound returned an IC50 at 24 h in series [2] (L929 fibroblast cells) greater than 100 µM. In series [3], the “Cytotoxicity, IC50” value is “not toxic to fibroblast cells”.
`Clc1ccccc1NN=Cc1c[nH]c2ccccc12` [1c, Indole-3-carboxaldehyde 2-chlorophenylhydrazone]: the IC50 in series [6] is 14.6 µM; in series [4], 85.6 µM; in series [7] it was greater than 100 µM. In addition, the “Antiplatelet aggregation activity, IC50, AA” value in series [6] is reported as “still acceptable”. The IC50 at 24 h in series [2] (L929 fibroblast cells) worked out at 45.9 µM.
What is called melting point is the temperature, or range, at which the solid turns liquid. `Clc1cccc(NN=Cc2c[nH]c3ccccc23)c1` [1d, Indole-3-carboxaldehyde 3-chlorophenylhydrazone] registered a melting point of 211 to 214 °C. Also, in series [6], the IC50 was determined as 28.1 µM. The compound further gave an IC50 at 24 h in series [2] of 33.9 µM. In addition, the IC50 in series [4] is greater than 100 µM. The IC50 in series [7] is greater than 100 µM.
With `Clc1ccc(N/N=C/c2c[nH]c3ccccc23)cc1` [1e], the IC50 in series [6] was 22.5 µM; in series [4], 62.5 µM; in series [7], greater than 100 µM. Besides, it took 66.7 µM to reach half-maximal inhibition in series [2] (IC50 at 24 h). In series [4], the “Antiplatelet aggregation activity, IC50, Collagen” value was “moderate activity”.
Take `Brc1ccc(N/N=C/c2c[nH]c3ccccc23)cc1` [1f]: the 50% inhibitory concentration (IC50) in series [6] was 21.2 µM; in series [4], greater than 100 µM; in series [7], 100 µM. In addition, the “Antiplatelet aggregation activity, IC50, AA” value in series [6] was “still acceptable”. In series [2] (L929 fibroblast cells), this compound returned an IC50 at 24 h of 59.8 µM.
Turning to `Cc1ccccc1NN=Cc1c[nH]c2ccccc12` [1g, Indole-3-carboxaldehyde 2-methylphenylhydrazone], the melting point fell in the range of 176 to 178 °C. For the same compound, the IC50 in series [6] was determined as 56.8 µM. In series [2] (L929 fibroblast cells), this compound gave an IC50 at 24 h of 85.1 µM. In addition, in series [4], the IC50 is 75.2 µM and the “Antiplatelet aggregation activity, IC50, Collagen” value is “moderate activity”. For the same compound, the IC50 in series [7] was greater than 100 µM.
On to `Cc1ccc(NN=Cc2c[nH]c3ccccc23)cc1` [1h, Indole-3-carboxaldehyde 4-methylphenylhydrazone], for which the IC50 in series [6] was 57.2 µM; in series [4], greater than 100 µM; in series [7], greater than 100 µM. In series [2] (L929 fibroblast cells), this compound displayed an IC50 at 24 h greater than 100 µM. For the same compound, the “Cytotoxicity, IC50” value in series [3] is recorded as “not toxic to fibroblast cells”.
Take `COc1ccc(NN=Cc2c[nH]c3ccccc23)cc1` [1i, Indole-3-carboxaldehyde 4-methoxyphenylhydrazone]: the IC50 in series [6] was 7.13 µM; in series [4] it was greater than 100 µM; in series [7], greater than 100 µM. Besides, in series [2] (L929 fibroblast cells), half-maximal inhibition (IC50 at 24 h) was put at 74.5 µM.
For the compound `O=C(NN=Cc1c[nH]c2ccccc12)c1ccccc1` [2a, Indole-3-carboxaldehyde benzoylhydrazone], the melting point is 238 to 241 °C. For the same compound, the half-inhibitory concentration (IC50) in series [6] is greater than 100 µM. Also, the IC50 at 24 h in series [2] (L929 fibroblast cells) is greater than 100 µM. Besides, the IC50 in series [4] was greater than 100 µM. Moreover, in series [7], the IC50 is greater than 100 µM.
`O=C(NN=Cc1c[nH]c2ccccc12)c1cccc(Cl)c1` [2b, Indole-3-carboxaldehyde 3-chlorobenzoylhydrazone] registered a melting point of 215 to 218 °C. Besides, the IC50 in series [6] was greater than 100 µM. The IC50 at 24 h in series [2] (L929 fibroblast cells) is greater than 100 µM. Besides, in series [4], the IC50 was greater than 100 µM. Also, the IC50 in series [7] is greater than 100 µM.
For `O=C(NN=Cc1c[nH]c2ccccc12)c1ccc(Cl)cc1` [2c, Indole-3-carboxaldehyde 4-chlorobenzoylhydrazone], the IC50 in series [6], in series [4] and in series [7] was greater than 100 µM each time. The same compound registered an IC50 at 24 h in series [2] (L929 fibroblast cells) greater than 100 µM.
In the case of `O=C(NN=Cc1c[nH]c2ccccc12)c1ccc([N+](=O)[O-])cc1` [2d, Indole-3-carboxaldehyde 4-nitrobenzoylhydrazone], the melting point was 250 to 253 °C. The IC50 in series [6] is greater than 100 µM. Further, the IC50 at 24 h in series [2] (L929 fibroblast cells) is greater than 100 µM. For the same compound, the IC50 in series [4] is greater than 100 µM. The concentration for half-maximal inhibition (IC50) in series [7] is greater than 100 µM.
The compound `Cc1cccc(C(=O)NN=Cc2c[nH]c3ccccc23)c1` [2e, Indole-3-carboxaldehyde 3-methylbenzoylhydrazone] had a melting point of 212 to 214 °C. In series [6], the IC50 is greater than 100 µM. Moreover, in series [2] (L929 fibroblast cells), the IC50 at 24 h was greater than 100 µM. Also, the IC50 in series [4] is greater than 100 µM. Besides, in series [7], the IC50 was greater than 100 µM.
Turning to `Cc1ccc(C(=O)NN=Cc2c[nH]c3ccccc23)cc1` [2f, Indole-3-carboxaldehyde 4-methylbenzoylhydrazone], the melting point is greater than 270 °C. The IC50 in series [6] was greater than 100 µM. This compound also yielded an IC50 at 24 h in series [2] (L929 fibroblast cells) greater than 100 µM. Moreover, the IC50 in series [4] was greater than 100 µM. In addition, in series [7], the IC50 was greater than 100 µM.
On to `O=C(N/N=C/c1c[nH]c2ccccc12)c1ccncc1` [2g], for which the IC50 in series [1], in series [4] and in series [5] was greater than 100 µM in each case. Also, in series [2] (L929 fibroblast cells), the IC50 at 24 h is greater than 100 µM.
Take `O=C(N/N=C/c1c[nH]c2ccc(Cl)cc12)c1ccccc1` [3a]: the IC50 in series [6], in series [4] and in series [7] was greater than 100 µM throughout. Also, the IC50 at 24 h in series [2] (L929 fibroblast cells) is greater than 100 µM.
`O=C(NN=Cc1c[nH]c2ccc(Cl)cc12)c1cccc(Cl)c1` [3b, 5-Chloroindole-3-carboxaldehyde 3-chlorobenzoylhydrazone] had a melting point of 230 to 233 °C. Besides, in series [6], the IC50 is greater than 100 µM. The same compound showed a concentration for half-maximal inhibition (IC50) at 24 h in series [2] (L929 fibroblast cells) of 55.5 µM. In addition, the IC50 in series [4] was greater than 100 µM. Also, the IC50 in series [7] was greater than 100 µM.
As for `O=C(N/N=C/c1c[nH]c2ccc(Cl)cc12)c1ccc(Cl)cc1` [3c], the IC50 in series [6], in series [4] and in series [7] was greater than 100 µM in each case. In series [2] (L929 fibroblast cells), this compound gave an IC50 at 24 h of 71.3 µM.
For `O=C(NN=Cc1c[nH]c2ccc(Cl)cc12)c1ccc([N+](=O)[O-])cc1` [3d, 5-Chloroindole-3-carboxaldehyde 4-nitrobenzoylhydrazone], the melting point was greater than 270 °C. Moreover, the IC50 in series [6] was greater than 100 µM. For the same compound, the IC50 at 24 h in series [2] (L929 fibroblast cells) is greater than 100 µM. For the same compound, the IC50 in series [4] was greater than 100 µM. In series [7], the IC50 is greater than 100 µM.
`Cc1cccc(C(=O)NN=Cc2c[nH]c3ccc(Cl)cc23)c1` [3e, 5-Chloroindole-3-carboxaldehyde 3-methylbenzoylhydrazone] had a melting point of 226 to 228 °C. In addition, in series [6], the IC50 was greater than 100 µM. Besides, the IC50 at 24 h in series [2] (L929 fibroblast cells) was 49.6 µM. Moreover, the IC50 in series [4] was greater than 100 µM. The IC50 in series [7] is greater than 100 µM.
Regarding `Cc1ccc(C(=O)NN=Cc2c[nH]c3ccc(Cl)cc23)cc1` [3f, 5-Chloroindole-3-carboxaldehyde 4-methylbenzoylhydrazone], the melting point is 244 °C (dec.). In addition, the IC50 in series [6] was greater than 100 µM. For the same compound, the IC50 at 24 h in series [2] (L929 fibroblast cells) stood at 62.7 µM. Besides, the IC50 in series [4] is greater than 100 µM. For the same compound, the IC50 in series [7] was greater than 100 µM.
On to `O=C(NN=Cc1c[nH]c2ccc(Cl)cc12)c1ccncc1` [3g, 5-Chloroindole-3-carboxaldehyde isonicotinoylhydrazone], for which the melting point was greater than 270 °C. Further, the IC50 in series [6] is greater than 100 µM. The compound also displayed an IC50 at 24 h in series [2] (L929 fibroblast cells) greater than 100 µM. The IC50 in series [4] was greater than 100 µM. Further, the IC50 in series [7] was greater than 100 µM.
For the compound `CC(=O)Oc1ccccc1C(=O)O` [Aspirin, reference compound], the IC50 in series [6] is 30.3 µM; in series [4] it was 9.7 µM; in series [7] it was greater than 100 µM.
On the same counts, the results for `COc1ccc2c(c1)c(CC(=O)O)c(C)n2C(=O)c1ccc(Cl)cc1` [Indometacin, reference compound] are 3 µM, 1.5 µM and greater than 100 µM.

Values taken from paper PMC4673935, “Synthesis, Antiplatelet Activity and Cytotoxicity Assessment of Indole-Based Hydrazone Derivatives” (Iranian Journal of Pharmaceutical Research : IJPR, 2015).
